# Data taken from ChEMBL document CHEMBL5247639, “Fused-ring α-pyrones from intramolecular C-H activation and their lipids-lowering activity associated with LXR-IDOL-LDLR axis regulation” (2022).
# Active and inactive are the calls of the source. The rule behind the calls is not given here.
# Columns and labels:
# HepG2 [1] = test: Induction of LDL uptake in human HepG2 cells at 5 uM incubated for 24 hrs by microplate reader analysis; format: functional, cell-based
# HepG2 [2] = test: Upregulation of LDLR protein level in human HepG2 cells at 5 uM incubated for 24 hrs by Western blot analysis; format: functional, cell-based
# [3] = Downregulation of IDOL protein level in human HepG2 cells at 5 uM incubated for 24 hrs by Western blot analysis relative to control; format: functional
# HepG2 [4] = test: Inhibition of LXR activity in human HepG2 cells assessed as downregulation of SREBP-1c level at 5 uM incubated for 24 hrs by Q-PCR analysis; format: cell-based
# Syrian golden hamster [5] = test: Hypolipidemic activity in high fat diet induced Syrian golden hamster assessed as decrease in total cholesterol level at 30 mg/kg,ip administered once daily for 21 days by automatic biochemical analyzer; format: functional, organism-based; conditions: Mesocricetus auratus, time 21.0 day
# HepG2 [6] = test: Inhibition of LXR activity in human HepG2 cells assessed as downregulation of ABCA1 level at 5 uM incubated for 24 hrs by Q-PCR analysis; format: cell-based
# Syrian golden hamster [7] = test: Hypolipidemic activity in high fat diet induced Syrian golden hamster assessed as decrease in triglyceride level at 30 mg/kg,ip administered once daily for 21 days by automatic biochemical analyzer; format: functional, organism-based; conditions: Mesocricetus auratus, time 21.0 day
# HepG2 [8] = test: Downregulation of IDOL mRNA level in human HepG2 cells at 5 uM incubated for 24 hrs by Q-PCR analysis; format: functional, cell-based
# Syrian golden hamster [9] = test: Hypolipidemic activity in high fat diet induced Syrian golden hamster assessed as decrease in low-density lipoprotein cholesterol level at 30 mg/kg,ip administered once daily for 21 days by automatic biochemical analyzer; format: functional, organism-based; conditions: Mesocricetus auratus, time 21.0 day
# [10] = Upregulation of LDLR protein level in human HepG2 cells at 5 uM incubated for 24 hrs by Western blot analysis relative to control; format: functional
# HepG2 [11] = test: Downregulation of LXRalpha protein level in nucleus of human HepG2 at 5 uM incubated for 24 hrs by Western blot analysis; format: functional, cell-based
smiles,measurement,setting,value
O=c1cc2c(c(-c3cc4ccccc4o3)o1)CCCC2,Activity,HepG2 [1],Active
COc1ccccc1-c1oc(=O)cc2c1CCCC2,Activity,HepG2 [2],inactive
same,Activity,HepG2 [1],Active
O=c1cc2c(c(-c3ccc(-c4ccccc4)s3)o1)CCCC2,Activity,HepG2 [1],Active
O=c1oc(-c2cccs2)c2c3c1c1ccccc1n3CCC2,Activity,HepG2 [1],Active
O=c1cc2c(c(-c3ccc(-c4cccs4)s3)o1)CCCC2,Activity,HepG2 [1],Active
O=c1cc2c(c(-c3cc4ccccc4s3)o1)CCCC2,Activity,HepG2 [1],Active
O=c1oc(-c2ccccc2)c2c3c1c1ccccc1n3CCC2,Activity,[3],28%
same,inhibition,HepG2 [4],Active
same,Activity,Syrian golden hamster [5],Active
same,inhibition,HepG2 [6],Active
same,Activity,Syrian golden hamster [7],Active
same,Activity,HepG2 [8],Active
same,Activity,Syrian golden hamster [9],Active
same,Activity,HepG2 [1],Active
same,Activity,[10],160%
same,Activity,HepG2 [11],Active
O=c1cc2c(c(-c3cccs3)o1)CCCC2,Activity,[3],42%
same,inhibition,HepG2 [4],Active
same,inhibition,HepG2 [6],Active
same,Activity,HepG2 [8],Active
same,Activity,HepG2 [1],Active
same,Activity,[10],238%
same,Activity,HepG2 [11],Active
